Structures are written as SMILES.

This experiment concerns the target T1, IRAK4 (Homo sapiens, UniProt Q9NWZ3).
T1 construct: endogenous in cells; host or cells: THP-1 cells
T1 sequence (Q9NWZ3 1-460): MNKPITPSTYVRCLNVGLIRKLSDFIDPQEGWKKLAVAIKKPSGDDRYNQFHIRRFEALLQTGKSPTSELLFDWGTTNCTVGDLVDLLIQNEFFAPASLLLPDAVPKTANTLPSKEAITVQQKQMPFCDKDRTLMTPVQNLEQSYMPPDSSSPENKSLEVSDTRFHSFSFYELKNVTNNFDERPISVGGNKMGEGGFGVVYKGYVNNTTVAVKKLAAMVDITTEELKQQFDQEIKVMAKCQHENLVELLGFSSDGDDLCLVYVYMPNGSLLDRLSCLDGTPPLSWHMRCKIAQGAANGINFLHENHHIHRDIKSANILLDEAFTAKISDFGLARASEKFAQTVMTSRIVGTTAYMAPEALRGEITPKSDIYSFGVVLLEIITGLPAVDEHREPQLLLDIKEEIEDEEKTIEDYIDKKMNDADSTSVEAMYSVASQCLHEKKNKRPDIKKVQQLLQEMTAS
The experiment is described as follows: ALE THP1 HTRF (Advanced Lipoxidation End Product THP1 Homogeneous Time Resolved Fluorescence). In kind it is cell-based. The conditions noted are these: THP1 cells. A digest of the protocol: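 HTRF read-out of IRAK4 protein: anti-IRAK4 d2 and cryptate antibody pair added to BCA-normalized lysates, overnight dark room-temperature incubation. Lysis ran 45 min with shaking at room temperature; buffer, cryptate-only and negative controls included.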
In the case of `C[C@H]1CN(c2ccc(C3CCC(=O)NC3=O)cc2)C[C@H](C)N1CCC1CCC(NC(=O)c2cnc(-n3ncc4cc(C#N)cnc43)cc2NC2CCCC2)CC1` (stereo partly shown) [P-67], the “ALE THP1 HTRF YMIN” value is given as 9.3% and the EC50 (commonly the concentration that produces a half-maximal response) amounted to 34 nM.

Consider `C[C@@H]1CN(c2ccc(C3CCC(=O)NC3=O)cc2)C[C@@H](C)N1CCC1CCC(NC(=O)c2cnc(-n3ncc4cc(C#N)cnc43)cc2NC2CCCC2)CC1` (stereo partly shown) [P-68], for which the “ALE THP1 HTRF YMIN” value is listed as 19.3% and a half-maximal response (EC50) required 136 nM.

`N#Cc1cnc2c(cnn2-c2cc(NC3CCCC3)c(C(=O)N[C@H]3CC[C@H](CN4CCC(COc5ccc(C6CCC(=O)NC6=O)cc5)CC4)CC3)cn2)c1` (stereo partly shown) [P-69]: the “ALE THP1 HTRF YMIN” value was found to be 15.4% and the midpoint of the response, the EC50, lay at 417 nM.

Turning to `N#Cc1cnc2c(cnn2-c2cc(Nc3cnn(CC(F)(F)F)c3)c(C(=O)NC3CCC(CCN4CCN(c5ccc(C6CCC(=O)NC6=O)cc5)CC4)CC3)cn2)c1` (stereo not shown) [P-70], the “ALE THP1 HTRF YMIN” value was determined as 8.2% and the EC50 worked out at 3 nM.

With `CCNc1cc(-n2ncc3cc(C#N)cnc32)ncc1C(=O)NC1CCC(CCN2CCN(c3ccc(C4CCC(=O)NC4=O)cc3)CC2)CC1` (stereo not shown) [P-71], the “ALE THP1 HTRF YMIN” value was determined as 10.9% and the EC50 is 8 nM.

With `N#Cc1cnc2c(cnn2-c2cc(NC3CC3)c(C(=O)NC3CCC(CCN4CCC(c5ccc(C6CCC(=O)NC6=O)cc5)CC4)CC3)cn2)c1` (stereo not shown) [P-72], the “ALE THP1 HTRF YMIN” value is listed as 9.5% and a half-maximal effect (EC50) was put at 5 nM.

As to `O=C1CCC(c2ccc(N3CCN(CCC4CCC(NC(=O)c5cnc(Nc6ccc7ncsc7c6)cc5NC5CCCC5)CC4)CC3)cc2)C(=O)N1` (stereo not shown) [P-73], the “ALE THP1 HTRF YMIN” value was 8.1% and the EC50 came out at 58 nM.

On to `N#Cc1cnc2c(cnn2-c2cc(NC3CCOCC3)c(C(=O)NC3CCC(CCN4CCN(c5ccc(C6CCC(=O)NC6=O)cc5)CC4)CC3)cn2)c1` (stereo not shown) [P-74], for which the “ALE THP1 HTRF YMIN” value was 9.4% and the EC50 worked out at 8 nM.

As to `N#Cc1cnn2c(-c3cc(NC4CCCC4)c(C(=O)NC4CCC(CCN5CCN(c6ccc(C7CCC(=O)NC7=O)cc6)CC5)CC4)cn3)ccc2c1` (stereo not shown) [P-75], the “ALE THP1 HTRF YMIN” value was found to be 11.4% and a half-maximal effect (EC50) was put at 62 nM.

Take `CC1(Nc2cc(-n3ncc4cc(C#N)cnc43)ncc2C(=O)NC2CCC(CCN3CCN(c4ccc(C5CCC(=O)NC5=O)cc4)CC3)CC2)CC1` (stereo not shown) [P-76]: the “ALE THP1 HTRF YMIN” value was 8.3% and the EC50 was found to be 7 nM.

With `CC(Nc1cc(-n2ncc3cc(C#N)cnc32)ncc1C(=O)NC1CCC(CCN2CCN(c3ccc(C4CCC(=O)NC4=O)cc3)CC2)CC1)C(F)(F)F` (stereo not shown) [P-77], the “ALE THP1 HTRF YMIN” value amounted to 11.3% and the EC50 turned out to be 28 nM.

In the case of `C[C@@H](CO)Nc1cc(-n2ncc3cc(C#N)cnc32)ncc1C(=O)NC1CCC(CCN2CCN(c3ccc(C4CCC(=O)NC4=O)cc3)CC2)CC1` (stereo partly shown) [P-78], the “ALE THP1 HTRF YMIN” value worked out at 7.6% and the EC50 is 9 nM.

For `COc1cc(N2CCN(CCC3CCC(NC(=O)c4cnc(-n5ncc6cc(C#N)cnc65)cc4NC4CC4)CC3)CC2)ccc1C1CCC(=O)NC1=O` (stereo not shown) [P-79], the “ALE THP1 HTRF YMIN” value was determined as 12.2% and the half-maximal effective concentration (EC50) came to 43 nM.

As for `COc1cc(C2CCC(=O)NC2=O)ccc1N1CCN(CCC2CCC(NC(=O)c3cnc(-n4ncc5cc(C#N)cnc54)cc3NC3CC3)CC2)CC1` (stereo not shown) [P-80], the “ALE THP1 HTRF YMIN” value amounted to 7.3% and the response was half-maximal at 26 nM (EC50).

Turning to `CC(C)(C[C@H]1CC[C@H](NC(=O)c2cnc(-n3ncc4cc(C#N)cnc43)cc2NC2CCCC2)CC1)N1CCN(c2ccc(C3CCC(=O)NC3=O)cc2)CC1` (stereo partly shown) [P-81, 6-(5-cyano-1H-pyrazolo[3,4-b]pyridin-1-yl)-4-(cyclopentylamino)-N-((1r,4r)-4-(2-(4-(4-(2,6-dioxopiperidin-3-yl)phenyl)piperazin-1-yl)-2-methylpropyl)cyclohexyl)nicotinamide], the “ALE THP1 HTRF YMIN” value is on record as 10.7% and the EC50 is 73 nM.

With `N#Cc1cnc2c(cnn2-c2cc(NC3CCC3)c(C(=O)NC3CCC(CCN4CCN(c5ccc(C6CCC(=O)NC6=O)cc5)CC4)CC3)cn2)c1` (stereo not shown) [P-82], the “ALE THP1 HTRF YMIN” value was 8.6% and the EC50 was determined as 230 nM.

With `CC(C)(C)Nc1cc(-n2ncc3cc(C#N)cnc32)ncc1C(=O)NC1CCC(CCN2CCN(c3ccc(C4CCC(=O)NC4=O)cc3)CC2)CC1` (stereo not shown) [P-83], the “ALE THP1 HTRF YMIN” value was 8.1% and the response was half-maximal at 47 nM (EC50).

As for `N#Cc1cnc2c(cnn2-c2cc(NC3CC3)c(C(=O)NC3CCC(CCN4CCN(c5ccc(C6CCC(=O)NC6=O)c(Cl)c5)CC4)CC3)cn2)c1` (stereo not shown) [P-84], the “ALE THP1 HTRF YMIN” value is 9.7% and the response was half-maximal at 35 nM (EC50).

Consider `N#Cc1cnc2c(cnn2-c2cc(NC3CC3)c(C(=O)NC3CCC(CCN4CCN(c5ccc(C6CCC(=O)NC6=O)nc5)CC4)CC3)cn2)c1` (stereo not shown) [P-85], for which the “ALE THP1 HTRF YMIN” value was 11.7% and the EC50 turned out to be 117 nM.

Take `CNc1cc(-n2ncc3cc(C#N)cnc32)ncc1C(=O)NC1CCC(CCN2CCN(c3ccc(C4CCC(=O)NC4=O)cc3)CC2)CC1` (stereo not shown) [P-86]: the “ALE THP1 HTRF YMIN” value is recorded as 11.8% and the EC50 was 90 nM.

Consider `N#Cc1cnc2c(cnn2-c2cc(NC3CCCC3)c(-n3cc([C@H]4CC[C@H](CCN5CCN(c6ccc(C7CCC(=O)NC7=O)cc6)CC5)CC4)nn3)cn2)c1` (stereo partly shown) [P-87, 1-[4-(cyclopentylamino)-5-[4-[4-[2-[4-[4-(2,6-dioxo-3-piperidyl)phenyl]piperazin-1-yl]ethyl]cyclohexyl]triazol-1-yl]-2-pyridyl]pyrazolo[3,4-b]pyridine-5-carbonitrile], for which the “ALE THP1 HTRF YMIN” value turned out to be 10.5% and the EC50 is 26 nM.

Turning to `N#Cc1cnc2c(cnn2-c2cc(NC3CC3)c(C(=O)N[C@H]3CC[C@H](OCC4CCN(c5ccc(C6CCC(=O)NC6=O)cc5)CC4)CC3)cn2)c1` (stereo partly shown) [P-88], the “ALE THP1 HTRF YMIN” value amounted to 64.5% and the midpoint of the response, the EC50, lay at 49 nM.

Take `N#CCNc1cc(-n2ncc3cc(C#N)cnc32)ncc1C(=O)NC1CCC(CCN2CCN(c3ccc(C4CCC(=O)NC4=O)cc3)CC2)CC1` (stereo not shown) [P-89]: the “ALE THP1 HTRF YMIN” value stood at 10.3% and the EC50 worked out at 23 nM.

For the molecule `N#Cc1cnc2c(cnn2-c2cc(NC3CC3)c(C(=O)N[C@H]3CC[C@H](CCN4CCC5(CC4)CN(c4cccc(C6CCC(=O)NC6=O)c4)C5)CC3)cn2)c1` (stereo partly shown) [P-90], the “ALE THP1 HTRF YMIN” value is listed as 11.6% and the EC50 is 28 nM.

Consider `C[C@H](C#N)Nc1cc(-n2ncc3cc(C#N)cnc32)ncc1C(=O)N[C@H]1CC[C@H](CCN2CCN(c3ccc(C4CCC(=O)NC4=O)cc3)CC2)CC1` (stereo partly drawn) [P-91, 6-(5-Cyano-1H-pyrazolo[3,4-b]pyridin-1-yl)-4-(((R)-1-cyanoethyl)amino)-N-((1r,4r)-4-(2-(4-(4-(2,6-dioxopiperidin-3-yl)phenyl)piperazin-1-yl)ethyl)cyclohexyl)nicotinamide], for which the “ALE THP1 HTRF YMIN” value is recorded as 7.0% and the EC50 was found to be 5 nM.

As for `N#Cc1cnc2c(cnn2-c2cc(NC34CC(C3)C4)c(C(=O)NC3CCC(CCN4CCN(c5ccc(C6CCC(=O)NC6=O)cc5)CC4)CC3)cn2)c1` (stereo not shown) [P-92], the “ALE THP1 HTRF YMIN” value was determined as 11.3% and the EC50 is 38 nM.

Turning to `N#Cc1cnc2c(-c3cc(NC4CC4)c(C(=O)NC4CCC(CCN5CCN(c6ccc(C7CCC(=O)NC7=O)cc6)CC5)CC4)cn3)cnn2c1` (stereo not shown) [P-93], the “ALE THP1 HTRF YMIN” value came out at 13.0% and the EC50 turned out to be 23 nM.

On to `N#Cc1cnc2c(cnn2-c2cc(NC3CC3)c(C(=O)NC3CCC(CCN4CCN(c5ccc([C@H]6CCC(=O)NC6=O)cc5)CC4)CC3)cn2)c1` (stereo partly shown) [P-95], for which the “ALE THP1 HTRF YMIN” value worked out at 9.9% and the EC50 was found to be 15 nM.

Take `N#Cc1cnc2c(cnn2-c2cc(NC3CC3)c(C(=O)NC3CCC(CCN4CCN(c5ccc([C@@H]6CCC(=O)NC6=O)cc5)CC4)CC3)cn2)c1` (stereo partly shown) [P-96]: the “ALE THP1 HTRF YMIN” value is given as 8.5% and the midpoint of the response, the EC50, lay at 4 nM.

As to `N#Cc1cnc2c(cnn2-c2cc(NC3CC(F)(F)C3)c(C(=O)NC3CCC(CCN4CCN(c5ccc(C6CCC(=O)NC6=O)cc5)CC4)CC3)cn2)c1` (stereo not shown) [P-97], the “ALE THP1 HTRF YMIN” value is given as 15.1% and the EC50 is 88 nM.

Turning to `N#Cc1cnc2c(cnn2-c2cc(NC3CC3)c(C(=O)NC3CCC(CCN4CCN(c5ccc(C6CCC(=O)NC6=O)cn5)CC4)CC3)cn2)c1` (stereo not shown) [P-98], the “ALE THP1 HTRF YMIN” value was determined as 10.5% and the EC50 is 17 nM.

Take `N#Cc1cnc2c(cnn2-c2cc(NCCF)c(C(=O)NC3CCC(CCN4CCN(c5ccc(C6CCC(=O)NC6=O)cc5)CC4)CC3)cn2)c1` (stereo not shown) [P-99]: the “ALE THP1 HTRF YMIN” value came out at 10.7% and the EC50 was 22 nM.

For the molecule `N#Cc1cc2ccn(-c3cc(NC4CC4)c(C(=O)NC4CCC(CCN5CCN(c6ccc(C7CCC(=O)NC7=O)cc6)CC5)CC4)cn3)c2nc1F` (stereo not shown) [P-100], the “ALE THP1 HTRF YMIN” value was 28.3% and the EC50 was determined as 1100 nM.

Take `N#Cc1cnc2c(c1)c(F)cn2-c1cc(NC2CC2)c(C(=O)NC2CCC(CCN3CCN(c4ccc(C5CCC(=O)NC5=O)cc4)CC3)CC2)cn1` (stereo not shown) [P-101]: the “ALE THP1 HTRF YMIN” value is 24.6% and the midpoint of the response, the EC50, lay at 92 nM.

In the case of `N#Cc1cnc2c(cnn2-c2cc(NC3CC3)c(C(=O)NC3CCC(NCC4CCN(c5ccc(C6CCC(=O)NC6=O)cc5)CC4)CC3)cn2)c1` (stereo not shown) [P-102], the “ALE THP1 HTRF YMIN” value is listed as 14.2% and a half-maximal effect (EC50) was put at 32 nM.

(Values after patent US20240109881A1, “Heteroaryl Compounds as Ligand Directed Degraders of IRAK4” (Bristol-Myers Squibb Company, priority 2022, published 2024).)
